One experiment addresses T1, human JAK1 (Homo sapiens, UniProt P23458).
T1 construct: The kinase domain of human JAK1 was amplified; GST (N); made in house; host or cells: Sf9 insect cells (baculovirus)
Put plainly: Alphascreen tyrosine kinase enzyme assay, JAK1 kinase domain. The format is biochemical. Conditions: read-out: JAK1 IC50_nM. How it is done: For screening purposes, compounds (in 100% DMSO) were warmed at 37 degrees for at least 20 minutes before use. A […] stock was initially made in assay buffer, where the final concentration of DMSO was 0.3%. The stocks were then diluted in 384 well Optiplates (Packard) where the final concentration of the compound was […].
The kinase domain of human JAK1 was amplified from U937mRNA using the polymerase chain reaction with the following primers: […]
The JAK1 PCR products were cloned into the pDest20 destination vector (Gibco). The JAK1 plasmid was then transformed into competent DH10Bac cells (Gibco), and the recombinant baculovirus was prepared via Sf9 insect cell transfection.
Baculovirus preparations from each of the constructs were infected into either one or five liters of Sf9 cells (Invitrogen) grown in SF-900 medium (Invitrogen) to a cell density of approximately 1-2×10^6 cells/ml. Cells were infected with virus at a MOI of 0.8-3.0. Cells were harvested and lysed. Tyrosine kinase domains were purified by affinity chromatography on a glutathione-agarose column (Scientifix Pty. Ltd. catalog #: GSH-200).
Kinase assays were performed in 384 well Optiplates (Packard) using an Alphascreen Protein Tyrosine Kinase PY100 detection kit The compounds were pre-incubated with affinity purified PTK domain in the presence of phosphotyrosine assay buffer (10 mM HEPES, pH 7.5, 100 mM MgCl2, 25 mM NaCl, […] and 0.1% Tween 20) for 20 minutes. The compounds were then incubated with substrate in the presence of ATP. The substrate used was susbtrate-1 with the sequence biotin-EGPWLEEEEEAYGWMDF-NH2 [SEQ. ID. NO. 13] (final concentration […]). For HCK 80 μm ATP was used and incubated for 60 minutes. Alphascreen phosphotyrosine acceptor beads followed by streptavidin donor beads at a concentration of 1/100 in stop buffer were added to each well under subdued light and incubated for 2-3 hours., The Alphascreen plates were read on a Packard Fusion Alpha instrument.
For orientation: Bead proximity is the source of the signal in Alpha formats.

The target in another experiment is T2, human JAK3 (Homo sapiens, UniProt P52333).
T2 construct: The kinase domain of human JAK3 was amplified; GST (N); made in house; host or cells: Sf9 insect cells (baculovirus)
T2 sequence (P52333 822-1111 limits assumed): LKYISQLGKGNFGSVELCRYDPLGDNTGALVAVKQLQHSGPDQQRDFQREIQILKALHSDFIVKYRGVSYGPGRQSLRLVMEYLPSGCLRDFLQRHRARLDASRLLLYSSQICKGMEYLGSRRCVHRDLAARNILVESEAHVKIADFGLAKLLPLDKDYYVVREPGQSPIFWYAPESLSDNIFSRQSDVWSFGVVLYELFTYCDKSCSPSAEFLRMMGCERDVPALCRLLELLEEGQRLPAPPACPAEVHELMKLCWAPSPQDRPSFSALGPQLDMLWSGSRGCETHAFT
Kind of experiment: Alphascreen tyrosine kinase enzyme assay, JAK3 kinase domain. The class given is biochemical. Conditions: read-out: JAK3 IC50_nM. Put shortly:
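GST-affinity-purified human JAK3 kinase domain (baculovirus/Sf9) was pre-incubated 20 min with compound ([…]) in HEPES pH 7.5 buffer with MgCl2, vanadate and Tween 20. Biotinylated peptide substrate ([…]) and ATP were then added; phosphotyrosine was detected by AlphaScreen PY100 acceptor and streptavidin donor beads after 2–3 h.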

The test system of the next experiment is BaF3 wild-type cells. Kind of experiment: Cellular screening, BaF3 wild-type cells, Alamar Blue. The format is cell-based. The settings on record: Mus musculus, 40 hr, read-out: BAF3wt IC50_nM. How it is done: For screening purposes, compounds were diluted in 96 well plates at a concentration of 20 μM. Plates were warmed at 37° C. for 30 minutes before the assay was performed.
The growth factor dependant myelomonocytic cell line BaF3 bearing the pTET-off plasmid (Clontech) was transfected with either pTELJAK2 or pTELJAK3, and the transfected cells were selected for growth-factor independent cell growth. The BaF3 wild-type cells were cultured in DMEM containing 10% FCS, 10% WEHI 3B conditioned medium. The BaF3 TELJAK cells ([…]) were cultured in DMEM 10% Tet-System Approved FBS (without WEHI 3B conditioned medium).
(§1) Cell suspensions were prepared by harvesting cells from culture (the cells used in this test were in late log phase growth with high viability.) Cells were diluted in the appropriate growth medium, as described above, to 1.1× final concentration (from 50,000 cell/mL to 200,000 cell/mL, depending on cell line).
(§2) Compounds to be tested were added (10 μL, 10× final concentration) to a flat bottomed 96-well plate. The cellular suspension (90 μL per well) was then added, and the plate incubated for 40 hr at 37° C., 5% CO2. Alamar Blue 10 μL per well was added and the plates returned to the incubator for a further 4-6 hours. The plates were then read at 544 nm.

The subject of the next experiment is CTLL2. Kind of experiment: Cellular screening, CTLL2 cells, Alamar Blue. The format is cell-based. The settings on record: Mus musculus, CTLL-2, read-out: CTLL2 IC50_nM. Here is the method:
as §1, §2
(Resazurin is reduced to fluorescent resorufin, in cell work by metabolically active cells.)

Our source for the IC50 values is US8846704B2, “Thiopyrimidine-based compounds and uses thereof” (YM Biosciences Austraila Pty Ltd, priority 2007, dated 2014).

T1 sequence (P23458 875-1153 limits assumed): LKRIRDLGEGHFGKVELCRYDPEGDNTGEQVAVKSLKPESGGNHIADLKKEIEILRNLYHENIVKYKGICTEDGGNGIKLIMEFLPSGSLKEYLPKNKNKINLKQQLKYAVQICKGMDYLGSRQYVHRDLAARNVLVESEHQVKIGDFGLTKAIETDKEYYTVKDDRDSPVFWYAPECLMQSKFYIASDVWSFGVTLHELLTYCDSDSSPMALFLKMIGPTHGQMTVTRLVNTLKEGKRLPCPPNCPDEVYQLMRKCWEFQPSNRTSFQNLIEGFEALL

Regarding `Nc1ccc(Sc2ccnc(Nc3ccc(N4CCOCC4)cc3)n2)cc1` [Compound 27, 4-(4-aophenylthio)-N-(4-morpholinophenyl)pyrimidin-2-ae], the IC50 is less than 1000 nM on human JAK1, less than 1000 nM at human JAK3, less than 20000 nM in the experiment on BaF3 wild-type cells and less than 5000 nM in the experiment on CTLL2.

Take `OCc1cccc(Sc2ccnc(Nc3ccc(N4CCOCC4)cc3)n2)c1` [Compound 62, (3-(2-(4-Morpholinophenylamino)pyrimidin-4-ylthio)phenyl)methanol]: the IC50 on human JAK1 is greater than 1000 nM; at human JAK3, less than 500 nM; in the experiment on BaF3 wild-type cells, less than 20000 nM; with CTLL2 it was less than 20000 nM.

As to `OCc1ccc(Sc2ccnc(Nc3ccc(N4CCOCC4)cc3)n2)cc1` [Compound 67, (4-(2-(4-morpholinophenylao)pyrimidin-4-ylthio)phenyl)methanol], the IC50 on human JAK1 is less than 1000 nM; on human JAK3, less than 500 nM; in the experiment with BaF3 wild-type cells it was less than 20000 nM; with CTLL2, less than 20000 nM.

For `N#CCNCc1cccc(Sc2ccnc(Nc3ccc(N4CCOCC4)cc3)n2)c1` [Compound 68, 2-(3-(2-(4-morpholinophenylao)pyrimidin-4-ylthio)benzylao)acetonitrile], the IC50 on human JAK1 is less than 1000 nM; on human JAK3 it was less than 500 nM; in the experiment with BaF3 wild-type cells it was greater than 20000 nM; in the experiment with CTLL2 it was greater than 20000 nM.

On to `NCc1cccc(Sc2ccnc(Nc3ccc(N4CCOCC4)cc3)n2)c1` [Compound 75, 4-(3-(aomethyl)phenylthio)-N-(4-morpholinophenyl)pyrimidin-2-ae], for which the IC50 at human JAK1 was less than 500 nM; at human JAK3, less than 500 nM; in the experiment with BaF3 wild-type cells, less than 20000 nM; in the experiment on CTLL2 it was less than 20000 nM.

As for `C=CC(=O)Nc1ccc(Sc2ccnc(Nc3cc(C)cc(C)c3)n2)cc1` [Compound 82, N-(4-(2-(3,5-dimethylphenylao)pyrimidin-4-ylthio)phenyl)acrylamide], the IC50 at human JAK1 was greater than 1000 nM; on human JAK3 it was less than 100 nM; with BaF3 wild-type cells it was less than 20000 nM; with CTLL2, less than 20000 nM.

Regarding `c1cc(Sc2ccc(Cn3cnnn3)cc2)nc(Nc2ccc(N3CCOCC3)cc2)n1` [Compound 109, 4-(4-((1H-tetrazol-1-yl)methyl)phenylthio)-N-(4-morpholinophenyl)pyrimidin-2-ae], the IC50 on human JAK1 is greater than 1000 nM; on human JAK3 it was less than 500 nM; in the experiment on BaF3 wild-type cells, less than 20000 nM; with CTLL2, greater than 20000 nM.

Consider `Cc1cnc(Nc2ccc(O)cc2)nc1Sc1ccc(NC(=O)CCl)cc1` [Compound 193, 2-chloro-N-(4-(2-(4-hydroxyphenylao)-5-methylpyrimidin-4-ylthio)phenyl)acetamide], for which the IC50 at human JAK1 was greater than 1000 nM; at human JAK3 it was less than 100 nM; with BaF3 wild-type cells it was less than 5000 nM; with CTLL2, less than 1000 nM.

As for `Cc1cnc(Nc2cccc(O)c2)nc1Sc1ccc(NC(=O)CCl)cc1` [Compound 194, 2-chloro-N-(4-(2-(3-hydroxyphenylao)-5-methylpyrimidin-4-ylthio)phenyl)acetamide], the IC50 on human JAK1 is greater than 1000 nM; on human JAK3, less than 100 nM; with BaF3 wild-type cells, less than 5000 nM; in the experiment with CTLL2 it was less than 1000 nM.

As for `Cc1cnc(Nc2ccc(N3CCOCC3)cc2)nc1Sc1ccc(NC(=O)CSCC(=O)O)cc1` [Compound 230, 2-(2-(4-(5-methyl-2-(4-morpholinophenylao)pyrimidin-4-ylthio)phenylao)-2-oxoethylthio)acetic acid], the IC50 at human JAK1 was less than 1000 nM; at human JAK3, less than 100 nM; with BaF3 wild-type cells, greater than 20000 nM; with CTLL2, greater than 20000 nM.

For the compound `C=CC(=O)N(C)c1ccc(Sc2nc(Nc3ccc(N4CCOCC4)cc3)ncc2Br)cc1` [Compound 261, N-(4-(5-bromo-2-(4-morpholinophenylao)pyrimidin-4-ylthio)phenyl)-N-methylacrylamide], the IC50 on human JAK1 was greater than 1000 nM; at human JAK3 it was less than 100 nM; in the experiment with BaF3 wild-type cells, greater than 20000 nM; with CTLL2 it was less than 1000 nM.

As for `C=CC(=O)Nc1ccc(Sc2nc(Nc3ccc(N4CCOCC4)cc3)ncc2F)cc1` [Compound 268, N-(4-(5-fluoro-2-(4-morpholinophenylao)pyrimidin-4-ylthio)phenyl)acrylamide], the IC50 is greater than 1000 nM at human JAK1, less than 100 nM on human JAK3, greater than 20000 nM in the experiment on BaF3 wild-type cells and less than 1000 nM with CTLL2.

Take `C=CC(=O)Nc1ccc(Sc2nc(Nc3ccc(N4CCC(O)C4)cc3)ncc2C)cc1` (stereo not shown) [Compound 295, N-(4-(2-(4-(3-hydroxypyrrolidin-1-yl)phenylao)-5-methylpyrimidin-4-ylthio)phenyl)acrylamide]: the IC50 was greater than 1000 nM on human JAK1, less than 100 nM on human JAK3, greater than 20000 nM in the experiment on BaF3 wild-type cells and less than 1000 nM in the experiment with CTLL2.

`C=CC(=O)Nc1ccc(Sc2nc(Nc3ccc(NS(C)(=O)=O)c(OC)c3)ncc2C)cc1` [Compound 296, N-(4-(2-(3-methoxy-4-(methylsulfonamido)phenylao)-5-methylpyrimidin-4-ylthio)phenyl)acrylamide]: the IC50 at human JAK1 was greater than 1000 nM; on human JAK3, less than 100 nM; in the experiment on BaF3 wild-type cells, less than 5000 nM; in the experiment on CTLL2, less than 1000 nM.

Regarding `C=CC(=O)Nc1ccc(Sc2nc(Nc3ccc(N4CCCC(O)C4)cc3)ncc2C)cc1` (stereo not shown) [Compound 299, N-(4-(2-(4-(3-hydroxypiperidin-1-yl)phenylao)-5-methylpyrimidin-4-ylthio)phenyl)acrylamide], the IC50 on human JAK1 was greater than 1000 nM; on human JAK3, less than 100 nM; in the experiment on BaF3 wild-type cells, less than 20000 nM; in the experiment with CTLL2, less than 1000 nM.

As to `C=CC(=O)Nc1ccc(Sc2nc(Nc3ccc(N4CCOCC4)cc3)ncc2Br)cc1` [Compound 306, N-(4-(5-bromo-2-(4-morpholinophenylao)pyrimidin-4-ylthio)phenyl)acrylamide], the IC50 on human JAK1 was greater than 1000 nM; at human JAK3, less than 100 nM; in the experiment on BaF3 wild-type cells, greater than 20000 nM; with CTLL2 it was less than 1000 nM.

Consider `O=C(/C=C\Cl)Nc1ccc(Sc2ccnc(Nc3ccc(N4CCOCC4)cc3)n2)cc1` [Compound 346, (Z)-3-chloro-N-(4-(2-(4-morpholinophenylao)pyrimidin-4-ylthio)phenyl)acrylamide], for which the IC50 at human JAK1 is greater than 1000 nM; on human JAK3, less than 100 nM; in the experiment with BaF3 wild-type cells, less than 1000 nM; in the experiment with CTLL2, less than 20000 nM.

Regarding `Cc1cnc(Nc2ccc(N3CCOCC3)cc2)nc1Sc1ccc(NC(=O)/C=C\C(=O)O)cc1` [Compound 380, (Z)-4-(4-(5-methyl-2-(4-morpholinophenylao)pyrimidin-4-ylthio)phenylao)-4-oxobut-2-enoic acid], the IC50 at human JAK1 was greater than 1000 nM; on human JAK3 it was less than 100 nM; in the experiment on BaF3 wild-type cells, greater than 20000 nM; with CTLL2, greater than 20000 nM.

Turning to `Cc1cnc(Nc2ccc(N3CCOCC3)cc2)nc1Sc1ccc(N2C(=O)C=C(Br)C2=O)cc1` [Compound 382, 3-bromo-1-(4-(5-methyl-2-(4-morpholinophenylao)pyrimidin-4-ylthio)phenyl)-1H-pyrrole-2,5-dione], the IC50 at human JAK1 was greater than 1000 nM; at human JAK3 it was less than 100 nM; with BaF3 wild-type cells, less than 20000 nM; with CTLL2, less than 20000 nM.
